Results: patent US9902725B2, “Heterocyclic derivatives as RORgamma modulators” (GENFIT, priority 2014, dated 2018)

target: T1, RORγt ligand-binding domain (RORγt-LBD) (Homo sapiens, UniProt P51449); assay: Time-resolved FRET (TR-FRET) RORγt coactivator assay; type: biochemical; settings: GST-RORγ-LBD, biotinylated RIP140 peptide, coactivator displacement
T1 construct: 20 nM recombinantly expressed RORγ-LBD fused to GST
T1 sequence (P51449 269-508 limits assumed): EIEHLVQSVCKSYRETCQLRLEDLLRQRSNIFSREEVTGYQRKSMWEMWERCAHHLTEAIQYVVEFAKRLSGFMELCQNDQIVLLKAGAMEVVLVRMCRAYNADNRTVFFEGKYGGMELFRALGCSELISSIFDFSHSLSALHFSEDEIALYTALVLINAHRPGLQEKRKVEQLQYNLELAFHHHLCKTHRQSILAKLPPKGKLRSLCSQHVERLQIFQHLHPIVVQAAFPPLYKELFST
Text: Time-resolved FRET (TR-FRET) RORγt coactivator assay was used to identify RORγ modulator compounds with ligand-dependent coactivator displacement. The assay uses a d2-labeled anti-GST antibody, synthetic N-terminally biotinylated peptide which is derived from nuclear receptor coactivator protein RIP140, and a RORγt ligand-binding domain (RORγt-LBD) that is tagged with glutathione-S-transferase (GST). The influence of compounds on the RORγ-peptide interaction relies on the binding dependent energy transfer from a donor to an acceptor fluorophore attached to the binding partner of interest. […] For reduction of background from compound fluorescence, TR-FRET method makes use of generic fluorophore labels and time resolved detection.
The assays were done in a final volume of 20 μl in a 384 well plate in a CHAPS buffer (2 mM CHAPS; 1 mM DTT, 2 mM EDTA; 0.1% BSA), containing 20 nM recombinantly expressed RORγ-LBD fused to GST, 30 nM N-terminally biotinylated peptide, 1 nM streptavidin-terbium conjugate and 20 nM d2 labeled-anti-GST. Test compounds were diluted using 10 mM stock solution. The range of the final compound concentrations used in this test was from 0.3 nM to 30 μM (logarithmic scale). DMSO content of the samples was kept at 1%. The assay was equilibrated for 2 hours in the dark at room temperature in 384 well plates (Falcon). The signal was detected by an Ultra384 reader (TECAN). The results were visualized by plotting the ratio between the emitted light at 665 nm and 620 nm. A basal level of RORγ-peptide formation is observed in the absence of added compound. Compounds that promote coactivator displacement induce a concentration-dependent decrease in time-resolved fluorescent signal. Data were collected and analyzed using GraphPad Prism software (GraphPad Software V5.02, San Diego Calif. USA). IC50 in μM and Emax in % were reported for each compound.

Row | Structure (SMILES) | IC50 [nM]
1 | C#CCC(NC(=O)Cc1ccc2[nH]cc(CCC(=O)OC(C)(C)C)c2c1)c1ccccc1N1CCCCC1 (stereo not shown) [Cpd. 260, tert-butyl 3-{5-[({1-[2-(piperidin-1-yl)phenyl]but-3-yn-1-yl}carbamoyl)methyl]-1H-indol-3-yl}propanoate] | 1000 to 10000
2 | Cc1ccc(C(NC(=O)Cc2ccc3[nH]cc(CCC(=O)O)c3c2)c2ncccn2)c(N2CCCCC2)c1 (stereo not shown) [compound 132, 3-{5-[({[4-methyl-2-(piperidin-1-yl)phenyl](pyrimidin-2-yl)methyl}carbamoyl)methyl]-1H-indol-3-yl}propanoic acid] | < 1000
3 | CC(C)(C)OC(=O)CCc1c[nH]c2ccc(CC(=O)NC(c3ccccc3)c3ccccc3N3CCCCC3)cc12 (stereo not shown) [Cpd. 2, tert-butyl 3-{5-[({phenyl[2-(piperidin-1-yl)phenyl]methyl}carbamoyl)methyl]-1H-indol-3-yl}propanoate] | 1000 to 10000
4 | CCCCC(NC(=O)Cc1ccc2[nH]cc(CCC(=O)OC(C)(C)C)c2c1)c1ccc(C)cc1N1CCCCC1 (stereo not shown) [Cpd. 230, tert-butyl 3-{5-[({1-[4-methyl-2-(piperidin-1-yl)phenyl]pentyl}carbamoyl)methyl]-1H-indol-3-yl}propanoate] | 1000 to 10000
5 | COC(=O)Cc1c[nH]c2ccc(CC(=O)NC(c3ncccn3)c3ccc(C)cc3Br)cc12 (stereo not shown) [Cpd. 256, methyl 2-[5-({[(2-bromo-4-methylphenyl)(pyrimidin-2-yl)methyl]carbamoyl}methyl)-1H-indol-3-yl]acetate] | 1000 to 10000
6 | COc1cc(C)ccc1C(NC(=O)Cc1ccc2[nH]cc(CCC(=O)O)c2c1)c1ccccc1 (stereo not shown) [compound 99, 3-[5-({[(2-methoxy-4-methylphenyl)(phenyl)methyl]carbamoyl}methyl)-1H-indol-3-yl]propanoic acid] | < 1000
7 | CON(C)C(=O)Cc1c[nH]c2ccc(CC(=O)NC(c3ccccc3)c3ccccc3N3CCCCC3)cc12 (stereo not shown) [compound 258, N-methoxy-N-methyl-2-{5-[({phenyl[2-(piperidin-1-yl)phenyl]methyl}carbamoyl)methyl]-1H-indol-3-yl}acetamide] | < 1000
8 | Cc1ccc(Cl)c(C(NC(=O)Cc2ccc3[nH]cc(CCC(=O)OC(C)(C)C)c3c2)c2ccccc2)c1 (stereo not shown) [Cpd. 41, tert-butyl 3-[5-({[(2-chloro-5-methylphenyl)(phenyl)methyl]carbamoyl}methyl)-1H-indol-3-yl]propanoate] | 1000 to 10000
9 | Cc1ccc(C(NC(=O)Cc2ccc3[nH]cc(CCC(=O)O)c3c2)c2ccccc2)c(N)c1 (stereo not shown) [compound 184, 3-[5-({[(2-amino-4-methylphenyl)(phenyl)methyl]carbamoyl}methyl)-1H-indol-3-yl]propanoic acid] | 1000 to 10000
10 | O=C(O)CCc1c[nH]c2ccc(CC(=O)NC(c3ccccc3)c3cccc4cc[nH]c34)cc12 (stereo not shown) [compound 168, 3-[5-({[1H-indol-7-yl(phenyl)methyl]carbamoyl}methyl)-1H-indol-3-yl]propanoic acid] | 1000 to 10000
11 | COC(=O)Cc1c[nH]c2ccc(CC(=O)NC(c3ccccc3)c3ccccc3N3CCCC3)cc12 (stereo not shown) [Cpd. 72, methyl 2-{5-[({phenyl[2-(pyrrolidin-1-yl)phenyl]methyl}carbamoyl)methyl]-1H-indol-3-yl}acetate] | < 1000
12 | CC(C)CC(NC(=O)Cc1ccc2[nH]cc(CCC(=O)O)c2c1)c1ccccc1OC(C)C (stereo not shown) [compound 241, 3-{5-[({3-methyl-1-[2-(propan-2-yloxy)phenyl]butyl}carbamoyl)methyl]-1H-indol-3-yl}propanoic acid] | < 1000
13 | CC(C)CC(NC(=O)Cc1ccc2[nH]cc(CCC(=O)OC(C)(C)C)c2c1)c1ccccc1N1CCOCC1 (stereo not shown) [Cpd. 57, tert-butyl 3-{5-[({3-methyl-1-[2-(morpholin-4-yl)phenyl]butyl}carbamoyl)methyl]-1H-indol-3-yl}propanoate] | 1000 to 10000
14 | Cc1ccc(C(NC(=O)Cc2ccc3[nH]cc(CCC(=O)O)c3c2)c2ccccc2)c(N2CCN(C)CC2)c1 (stereo not shown) [compound 103, 3-{5-[({[4-methyl-2-(4-methylpiperazin-1-yl)phenyl](phenyl)methyl}carbamoyl)methyl]-1H-indol-3-yl}propanoic acid] | 1000 to 10000
15 | CC(C)CC(NC(=O)Cc1ccc2[nH]cc(CCC(=O)OC(C)(C)C)c2c1)c1ccccc1OC(C)C (stereo not shown) [Cpd. 240, tert-butyl 3-{5-[({3-methyl-1-[2-(propan-2-yloxy)phenyl]butyl}carbamoyl)methyl]-1H-indol-3-yl}propanoate] | < 1000
16 | COC(=O)Cc1c[nH]c2ccc(CC(=O)NC(c3ccccc3)c3ccc(Br)cc3N3CCCC3)cc12 (stereo not shown) [Cpd. 66, methyl 2-{5-[({[4-bromo-2-(pyrrolidin-1-yl)phenyl](phenyl)methyl}carbamoyl)methyl]-1H-indol-3-yl}acetate] | < 1000
17 | O=C(O)CCc1c[nH]c2ccc(CC(=O)NC(c3ccccc3)c3ccccc3-n3cccc3)cc12 (stereo not shown) [compound 107, 3-{5-[({phenyl[2-(1H-pyrrol-1-yl)phenyl]methyl}carbamoyl)methyl]-1H-indol-3-yl}propanoic acid] | < 1000
18 | Cc1cc(F)ccc1C(NC(=O)Cc1ccc2[nH]cc(CCC(=O)OC(C)(C)C)c2c1)c1ccccc1 (stereo not shown) [Cpd. 45, tert-butyl 3-[5-({[(4-fluoro-2-methylphenyl)(phenyl)methyl]carbamoyl}methyl)-1H-indol-3-yl]propanoate] | 10000 to 30000
19 | Cc1ccc(C(NC(=O)Cc2ccc3[nH]cc(CCC(=O)OC(C)(C)C)c3c2)c2ccccc2)c(N2CCOCC2)c1 (stereo not shown) [Cpd. 80, tert-butyl 3-{5-[({[4-methyl-2-(morpholin-4-yl)phenyl](phenyl)methyl}carbamoyl)methyl]-1H-indol-3-yl}propanoate] | < 1000
20 | N=C(N)NC(=O)CCc1c[nH]c2ccc(CC(=O)NC(c3ccccc3)c3ccccc3N3CCCCC3)cc12 (stereo not shown) [compound 235, 1-{2-[(2-{3-[2-(carbamimidoylcarbamoyl)ethyl]-1H-indol-5-yl}acetamido)(phenyl)methyl]phenyl}piperidin-1-ium chloride] | 1000 to 10000
21 | CC(C)(C)OC(=O)CCc1c[nH]c2ccc(CC(=O)NC(c3ccccc3)c3ccccc3-n3cccc3)cc12 (stereo not shown) [Cpd. 106, tert-butyl 3-{5-[({phenyl[2-(1H-pyrrol-1-yl)phenyl]methyl}carbamoyl)methyl]-1H-indol-3-yl}propanoate] | 1000 to 10000
22 | O=C(Cc1ccc2[nH]cc(C(=O)O)c2c1)NC(c1ccccc1)c1ccccc1N1CCCCC1 (stereo not shown) [compound 206, 1-(2-{[2-(3-carboxy-1H-indol-5-yl)acetamido](phenyl)methyl}phenyl)piperidin-1-ium chloride] | 1000 to 10000
23 | Cc1ccc(C(NC(=O)Cc2ccc3[nH]cc(CCC(=O)OC(C)(C)C)c3c2)c2ccccc2)c2[nH]ccc12 (stereo not shown) [Cpd. 228, tert-butyl 3-[5-({[(4-methyl-1H-indol-7-yl)(phenyl)methyl]carbamoyl}methyl)-1H-indol-3-yl]propanoate] | 1000 to 10000
24 | Cc1ccc(C(CC(C)C)NC(=O)Cc2ccc3[nH]cc(CCC(=O)OC(C)(C)C)c3c2)c(OC(C)C)c1 (stereo not shown) [Cpd. 248, tert-butyl 3-{5-[({3-methyl-1-[4-methyl-2-(propan-2-yloxy)phenyl]butyl}carbamoyl)methyl]-1H-indol-3-yl}propanoate] | 1000 to 10000
25 | CC(C)(C)OC(=O)CCc1c[nH]c2ncc(NC(=O)NC(c3ccccc3)c3ccccc3N3CCCCC3)cc12 (stereo not shown) [Cpd. 94, tert-butyl 3-{5-[({phenyl[2-(piperidin-1-yl)phenyl]methyl}carbamoyl)amino]-1H-pyrrolo[2,3-b]pyridin-3-yl}propanoate] | 1000 to 10000
26 | Cc1ccc(C(NC(=O)Cc2ccc3[nH]cc(CCC(=O)OC(C)(C)C)c3c2)c2ncccn2)c(Br)c1 (stereo not shown) [Cpd. 226, tert-butyl 3-[5-({[(2-bromo-4-methylphenyl)(pyrimidin-2-yl)methyl]carbamoyl}methyl)-1H-indol-3-yl]propanoate] | < 1000
27 | O=C(O)CCc1n[nH]c2ccc(CC(=O)NC(c3ccccc3)c3ccccc3N3CCCCC3)cc12 (stereo not shown) [compound 237, 3-{5-[({phenyl[2-(piperidin-1-yl)phenyl]methyl}carbamoyl)methyl]-1H-indazol-3-yl}propanoic acid] | < 1000
28 | Cc1cccc(CC(NC(=O)Cc2ccc3[nH]cc(CCC(=O)O)c3c2)c2ccccc2N2CCCCC2)c1 (stereo not shown) [compound 176, 3-[5-({[2-(3-methylphenyl)-1-[2-(piperidin-1-yl)phenyl]ethyl]carbamoyl}methyl)-1H-indol-3-yl]propanoic acid] | 1000 to 10000
